# Laboratory results taken from ChEMBL document CHEMBL5576101, “Discovery of 1,2,3-triazole-based pleuromutilin derivatives as potent gram-positive antibacterial agents” (2024).
# The source made the active and inactive calls. The rule behind the calls is not given here.
# Test system: Staphylococcus epidermidis
# Assay: Bacteriostatic activity against Staphylococcus epidermidis assessed as reduction in bacterial growth at 1 times MIC measured after 24 hrs by time kill assay
# Format: functional, organism-based
row,Structure (SMILES),Activity
1,C=C[C@]1(C)C[C@@H](OC(=O)CSC(C)(C)CNC(=O)Cn2cc(COc3ccc([N+](=O)[O-])cc3[N+](=O)[O-])nn2)[C@]2(C)[C@H](C)CC[C@]3(CCC(=O)[C@H]32)[C@@H](C)[C@@H]1O,Active
2,C=C[C@]1(C)C[C@@H](OC(=O)CSC(C)(C)CNC(=O)Cn2cc(CNc3ccc([N+](=O)[O-])cc3)nn2)[C@]2(C)[C@H](C)CC[C@]3(CCC(=O)[C@H]32)[C@@H](C)[C@@H]1O,Active
3,C=C[C@]1(C)C[C@@H](OC(=O)CSC(C)(C)CNC(=O)Cn2cc(Cc3cccc(N)c3)nn2)[C@]2(C)[C@H](C)CC[C@]3(CCC(=O)[C@H]32)[C@@H](C)[C@@H]1O,Active

# Test system: Staphylococcus aureus
# Assay: Bacteriostatic activity against methicillin-resistant Staphylococcus aureus assessed as reduction in bacterial growth at 1 times MIC measured after 24 hrs by time kill assay
# Format: functional, organism-based
row,Structure (SMILES),Activity
1,C=C[C@]1(C)C[C@@H](OC(=O)CSC(C)(C)CNC(=O)Cn2cc(COc3ccc([N+](=O)[O-])cc3[N+](=O)[O-])nn2)[C@]2(C)[C@H](C)CC[C@]3(CCC(=O)[C@H]32)[C@@H](C)[C@@H]1O,Active
2,C=C[C@]1(C)C[C@@H](OC(=O)CSC(C)(C)CNC(=O)Cn2cc(CNc3ccc([N+](=O)[O-])cc3)nn2)[C@]2(C)[C@H](C)CC[C@]3(CCC(=O)[C@H]32)[C@@H](C)[C@@H]1O,Active
3,C=C[C@]1(C)C[C@@H](OC(=O)CSC(C)(C)CNC(=O)Cn2cc(Cc3cccc(N)c3)nn2)[C@]2(C)[C@H](C)CC[C@]3(CCC(=O)[C@H]32)[C@@H](C)[C@@H]1O,Active

# Test system: Staphylococcus aureus
# Assay: Bacteriostatic activity against Staphylococcus aureus assessed as log reduction in bacterial growth at 2 times MIC measured after 24 hrs by time kill assay
# Format: functional
row,Structure (SMILES),log(activity)
1,C=C[C@]1(C)C[C@@H](OC(=O)CSC(C)(C)CNC(=O)Cn2cc(COc3ccc([N+](=O)[O-])cc3[N+](=O)[O-])nn2)[C@]2(C)[C@H](C)CC[C@]3(CCC(=O)[C@H]32)[C@@H](C)[C@@H]1O,1.98

# Test system: Staphylococcus aureus
# Assay: Bacteriostatic activity against Staphylococcus aureus assessed as log reduction in viable cell count at 6 times MIC measured after 24 hrs by time kill assay
# Format: functional
row,Structure (SMILES),log(activity)
1,C=C[C@]1(C)C[C@@H](OC(=O)CSC(C)(C)CNC(=O)Cn2cc(COc3ccc([N+](=O)[O-])cc3[N+](=O)[O-])nn2)[C@]2(C)[C@H](C)CC[C@]3(CCC(=O)[C@H]32)[C@@H](C)[C@@H]1O,4.1
2,C=C[C@]1(C)C[C@@H](OC(=O)CSC(C)(C)CNC(=O)Cn2cc(Cc3cccc(N)c3)nn2)[C@]2(C)[C@H](C)CC[C@]3(CCC(=O)[C@H]32)[C@@H](C)[C@@H]1O,4.1

# Test system: Staphylococcus aureus
# Assay: Bacteriostatic activity against methicillin-resistant Staphylococcus aureus assessed as log reduction in viable cell count at 6 times MIC measured after 24 hrs by time kill assay
# Format: functional
row,Structure (SMILES),log(activity)
1,C=C[C@]1(C)C[C@@H](OC(=O)CSC(C)(C)CNC(=O)Cn2cc(COc3ccc([N+](=O)[O-])cc3[N+](=O)[O-])nn2)[C@]2(C)[C@H](C)CC[C@]3(CCC(=O)[C@H]32)[C@@H](C)[C@@H]1O,4.3
2,C=C[C@]1(C)C[C@@H](OC(=O)CSC(C)(C)CNC(=O)Cn2cc(Cc3cccc(N)c3)nn2)[C@]2(C)[C@H](C)CC[C@]3(CCC(=O)[C@H]32)[C@@H](C)[C@@H]1O,4.3

# Test system: Staphylococcus aureus
# Assay: Potency index, ratio of tiamulin MIC to test compound MIC for antibacterial activity methicillin-resistant Staphylococcus aureus by broth dilution method
# Format: functional
row,Structure (SMILES),Ratio
1,C=C[C@]1(C)C[C@@H](OC(=O)CSC(C)(C)CNC(=O)Cn2cc(COc3ccc([N+](=O)[O-])cc3[N+](=O)[O-])nn2)[C@]2(C)[C@H](C)CC[C@]3(CCC(=O)[C@H]32)[C@@H](C)[C@@H]1O,4

# Test system: Staphylococcus aureus
# Assay: Potency index, ratio of tiamulin MIC to test compound MIC for antibacterial activity Staphylococcus aureus by broth dilution method
# Format: functional
row,Structure (SMILES),Ratio
1,C=C[C@]1(C)C[C@@H](OC(=O)CSC(C)(C)CNC(=O)Cn2cc(COc3ccc([N+](=O)[O-])cc3[N+](=O)[O-])nn2)[C@]2(C)[C@H](C)CC[C@]3(CCC(=O)[C@H]32)[C@@H](C)[C@@H]1O,64

# Test system: Staphylococcus epidermidis
# Assay: Bacteriostatic activity against Staphylococcus epidermidis assessed as log reduction in bacterial growth at 6 times MIC measured after 24 hrs by time kill assay
# Format: functional
row,Structure (SMILES),log(activity)
1,C=C[C@]1(C)C[C@@H](OC(=O)CSC(C)(C)CNC(=O)Cn2cc(CNc3ccc([N+](=O)[O-])cc3)nn2)[C@]2(C)[C@H](C)CC[C@]3(CCC(=O)[C@H]32)[C@@H](C)[C@@H]1O,4.4

# Test system: Staphylococcus aureus
# Assay: Bacteriostatic activity against Staphylococcus aureus assessed as reduction in bacterial growth at 1 times MIC measured after 24 hrs by time kill assay
# Format: functional, organism-based
row,Structure (SMILES),Activity
1,C=C[C@]1(C)C[C@@H](OC(=O)CSC(C)(C)CNC(=O)Cn2cc(COc3ccc([N+](=O)[O-])cc3[N+](=O)[O-])nn2)[C@]2(C)[C@H](C)CC[C@]3(CCC(=O)[C@H]32)[C@@H](C)[C@@H]1O,Active
2,C=C[C@]1(C)C[C@@H](OC(=O)CSC(C)(C)CNC(=O)Cn2cc(CNc3ccc([N+](=O)[O-])cc3)nn2)[C@]2(C)[C@H](C)CC[C@]3(CCC(=O)[C@H]32)[C@@H](C)[C@@H]1O,Active
3,C=C[C@]1(C)C[C@@H](OC(=O)CSC(C)(C)CNC(=O)Cn2cc(Cc3cccc(N)c3)nn2)[C@]2(C)[C@H](C)CC[C@]3(CCC(=O)[C@H]32)[C@@H](C)[C@@H]1O,Active

# Test system: Enterococcus faecalis
# Assay: Antibacterial activity against Enterococcus faecalis by broth dilution method
# Format: functional
row,Structure (SMILES),MIC
1,C=C[C@]1(C)C[C@@H](OC(=O)CSC(C)(C)CNC(=O)Cn2cc(CNc3ccc(OCCCCCC)cc3)nn2)[C@]2(C)[C@H](C)CC[C@]3(CCC(=O)[C@H]32)[C@@H](C)[C@@H]1O,0.062 µg/mL
2,C=C[C@]1(C)C[C@@H](OC(=O)CSC(C)(C)CNC(=O)Cn2cc(COc3ccc([N+](=O)[O-])cc3[N+](=O)[O-])nn2)[C@]2(C)[C@H](C)CC[C@]3(CCC(=O)[C@H]32)[C@@H](C)[C@@H]1O,0.25 µg/mL
3,C=C[C@]1(C)C[C@@H](OC(=O)CSC(C)(C)CNC(=O)Cn2cc(CNc3ccc([N+](=O)[O-])cc3)nn2)[C@]2(C)[C@H](C)CC[C@]3(CCC(=O)[C@H]32)[C@@H](C)[C@@H]1O,2 µg/mL
4,C=C[C@]1(C)C[C@@H](OC(=O)CSC(C)(C)CNC(=O)Cn2cc(Cc3cccc(N)c3)nn2)[C@]2(C)[C@H](C)CC[C@]3(CCC(=O)[C@H]32)[C@@H](C)[C@@H]1O,> 64 µg/mL

# Test system: Staphylococcus aureus
# Assay: Bacteriostatic activity against Staphylococcus aureus assessed as log reduction in bacterial growth at 4 times MIC measured after 24 hrs by time kill assay
# Format: functional
row,Structure (SMILES),log(activity)
1,C=C[C@]1(C)C[C@@H](OC(=O)CSC(C)(C)CNC(=O)Cn2cc(COc3ccc([N+](=O)[O-])cc3[N+](=O)[O-])nn2)[C@]2(C)[C@H](C)CC[C@]3(CCC(=O)[C@H]32)[C@@H](C)[C@@H]1O,3.38

# Test system: Enterococcus faecalis
# Assay: Potency index, ratio of tiamulin MIC to test compound MIC for antibacterial activity Enterococcus faecalis by broth dilution method
# Format: functional
row,Structure (SMILES),Ratio
1,C=C[C@]1(C)C[C@@H](OC(=O)CSC(C)(C)CNC(=O)Cn2cc(COc3ccc([N+](=O)[O-])cc3[N+](=O)[O-])nn2)[C@]2(C)[C@H](C)CC[C@]3(CCC(=O)[C@H]32)[C@@H](C)[C@@H]1O,128

# Test system: Staphylococcus epidermidis
# Assay: Potency index, ratio of tiamulin MIC to test compound MIC for antibacterial activity Staphylococcus epidermidis by broth dilution method
# Format: functional
row,Structure (SMILES),Ratio
1,C=C[C@]1(C)C[C@@H](OC(=O)CSC(C)(C)CNC(=O)Cn2cc(COc3ccc([N+](=O)[O-])cc3[N+](=O)[O-])nn2)[C@]2(C)[C@H](C)CC[C@]3(CCC(=O)[C@H]32)[C@@H](C)[C@@H]1O,8

# Test system: Staphylococcus aureus
# Assay: Antibacterial activity against Staphylococcus aureus by broth dilution method
# Format: functional
row,Structure (SMILES),MIC
1,C=C[C@]1(C)C[C@@H](OC(=O)CSC(C)(C)CNC(=O)Cn2cc(CNc3ccc(OCCCCCC)cc3)nn2)[C@]2(C)[C@H](C)CC[C@]3(CCC(=O)[C@H]32)[C@@H](C)[C@@H]1O,> 64 µg/mL
2,C=C[C@]1(C)C[C@@H](OC(=O)CSC(C)(C)CNC(=O)Cn2cc(COc3ccc([N+](=O)[O-])cc3[N+](=O)[O-])nn2)[C@]2(C)[C@H](C)CC[C@]3(CCC(=O)[C@H]32)[C@@H](C)[C@@H]1O,0.062 µg/mL
3,C=C[C@]1(C)C[C@@H](OC(=O)CSC(C)(C)CNC(=O)Cn2cc(CNc3ccc([N+](=O)[O-])cc3)nn2)[C@]2(C)[C@H](C)CC[C@]3(CCC(=O)[C@H]32)[C@@H](C)[C@@H]1O,64 µg/mL
4,C=C[C@]1(C)C[C@@H](OC(=O)CSC(C)(C)CNC(=O)Cn2cc(Cc3cccc(N)c3)nn2)[C@]2(C)[C@H](C)CC[C@]3(CCC(=O)[C@H]32)[C@@H](C)[C@@H]1O,> 64 µg/mL

# Test system: Staphylococcus aureus
# Assay: Antibacterial activity against methicillin-resistant Staphylococcus aureus by broth dilution method
# Format: functional
row,Structure (SMILES),MIC
1,C=C[C@]1(C)C[C@@H](OC(=O)CSC(C)(C)CNC(=O)Cn2cc(CNc3ccc(OCCCCCC)cc3)nn2)[C@]2(C)[C@H](C)CC[C@]3(CCC(=O)[C@H]32)[C@@H](C)[C@@H]1O,16 µg/mL
2,C=C[C@]1(C)C[C@@H](OC(=O)CSC(C)(C)CNC(=O)Cn2cc(COc3ccc([N+](=O)[O-])cc3[N+](=O)[O-])nn2)[C@]2(C)[C@H](C)CC[C@]3(CCC(=O)[C@H]32)[C@@H](C)[C@@H]1O,0.062 µg/mL
3,C=C[C@]1(C)C[C@@H](OC(=O)CSC(C)(C)CNC(=O)Cn2cc(CNc3ccc([N+](=O)[O-])cc3)nn2)[C@]2(C)[C@H](C)CC[C@]3(CCC(=O)[C@H]32)[C@@H](C)[C@@H]1O,0.25 µg/mL
4,C=C[C@]1(C)C[C@@H](OC(=O)CSC(C)(C)CNC(=O)Cn2cc(Cc3cccc(N)c3)nn2)[C@]2(C)[C@H](C)CC[C@]3(CCC(=O)[C@H]32)[C@@H](C)[C@@H]1O,0.062 µg/mL

# Test system: Escherichia coli
# Assay: Antibacterial activity against Escherichia coli by broth dilution method
# Format: functional
row,Structure (SMILES),MIC
1,C=C[C@]1(C)C[C@@H](OC(=O)CSC(C)(C)CNC(=O)Cn2cc(CNc3ccc(OCCCCCC)cc3)nn2)[C@]2(C)[C@H](C)CC[C@]3(CCC(=O)[C@H]32)[C@@H](C)[C@@H]1O,> 64 µg/mL
2,C=C[C@]1(C)C[C@@H](OC(=O)CSC(C)(C)CNC(=O)Cn2cc(COc3ccc([N+](=O)[O-])cc3[N+](=O)[O-])nn2)[C@]2(C)[C@H](C)CC[C@]3(CCC(=O)[C@H]32)[C@@H](C)[C@@H]1O,> 64 µg/mL
3,C=C[C@]1(C)C[C@@H](OC(=O)CSC(C)(C)CNC(=O)Cn2cc(CNc3ccc([N+](=O)[O-])cc3)nn2)[C@]2(C)[C@H](C)CC[C@]3(CCC(=O)[C@H]32)[C@@H](C)[C@@H]1O,> 64 µg/mL
4,C=C[C@]1(C)C[C@@H](OC(=O)CSC(C)(C)CNC(=O)Cn2cc(Cc3cccc(N)c3)nn2)[C@]2(C)[C@H](C)CC[C@]3(CCC(=O)[C@H]32)[C@@H](C)[C@@H]1O,> 64 µg/mL

# Test system: Staphylococcus epidermidis
# Assay: Antibacterial activity against Staphylococcus epidermidis by broth dilution method
# Format: functional
row,Structure (SMILES),MIC
1,C=C[C@]1(C)C[C@@H](OC(=O)CSC(C)(C)CNC(=O)Cn2cc(CNc3ccc(OCCCCCC)cc3)nn2)[C@]2(C)[C@H](C)CC[C@]3(CCC(=O)[C@H]32)[C@@H](C)[C@@H]1O,0.5 µg/mL
2,C=C[C@]1(C)C[C@@H](OC(=O)CSC(C)(C)CNC(=O)Cn2cc(COc3ccc([N+](=O)[O-])cc3[N+](=O)[O-])nn2)[C@]2(C)[C@H](C)CC[C@]3(CCC(=O)[C@H]32)[C@@H](C)[C@@H]1O,0.062 µg/mL
3,C=C[C@]1(C)C[C@@H](OC(=O)CSC(C)(C)CNC(=O)Cn2cc(CNc3ccc([N+](=O)[O-])cc3)nn2)[C@]2(C)[C@H](C)CC[C@]3(CCC(=O)[C@H]32)[C@@H](C)[C@@H]1O,0.125 µg/mL
4,C=C[C@]1(C)C[C@@H](OC(=O)CSC(C)(C)CNC(=O)Cn2cc(Cc3cccc(N)c3)nn2)[C@]2(C)[C@H](C)CC[C@]3(CCC(=O)[C@H]32)[C@@H](C)[C@@H]1O,0.062 µg/mL
